Measurements reported in ChEMBL document CHEMBL1137145, “Benzodiazepine inhibitors of the MMPs and TACE. Part 2” (Bioorg Med Chem Lett, 2004).

What was measured:
[1] = Ability to inhibit LPS-stimulated TNF production in THP-1 cells at 3 uM concentration; format: functional; settings: Homo sapiens
[2] = molecular target: T1, Interstitial collagenase (Homo sapiens, UniProt P03956); assay: In vitro inhibitory activity against matrix metalloprotease-1
T1 sequence (P03956 whole entry): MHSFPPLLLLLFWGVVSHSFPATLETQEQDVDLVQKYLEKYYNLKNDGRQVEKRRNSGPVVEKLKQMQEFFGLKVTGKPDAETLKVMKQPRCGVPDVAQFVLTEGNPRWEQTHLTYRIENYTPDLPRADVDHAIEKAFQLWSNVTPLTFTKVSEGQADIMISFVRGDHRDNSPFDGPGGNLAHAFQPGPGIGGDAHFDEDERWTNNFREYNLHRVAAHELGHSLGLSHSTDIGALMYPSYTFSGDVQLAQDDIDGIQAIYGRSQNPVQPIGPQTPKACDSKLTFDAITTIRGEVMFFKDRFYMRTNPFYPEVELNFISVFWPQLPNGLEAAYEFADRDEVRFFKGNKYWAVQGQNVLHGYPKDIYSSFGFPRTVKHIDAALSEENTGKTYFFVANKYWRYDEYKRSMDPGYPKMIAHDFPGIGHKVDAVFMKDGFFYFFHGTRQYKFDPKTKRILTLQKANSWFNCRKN

[3] = molecular target: Collagenase 3 (Homo sapiens, UniProt P45452); assay: In vitro inhibitory activity against matrix metalloprotease-13
[4] = molecular target: Disintegrin and metalloproteinase domain-containing protein 17 (Homo sapiens, UniProt P78536); assay: Inhibitory activity against Tumor necrosis factor alpha converting enzyme
[5] = molecular target: T2, Interstitial collagenase (Homo sapiens) (UniProt P03956); assay: In vitro inhibitory activity against matrix metallo proteinase-1 at 1 uM concentration
T2 sequence (whole entry): T1 sequence (P03956 whole entry)

Sequence of Disintegrin and metalloproteinase domain-containing protein 17 (P78536 whole entry, the tested form may be a part): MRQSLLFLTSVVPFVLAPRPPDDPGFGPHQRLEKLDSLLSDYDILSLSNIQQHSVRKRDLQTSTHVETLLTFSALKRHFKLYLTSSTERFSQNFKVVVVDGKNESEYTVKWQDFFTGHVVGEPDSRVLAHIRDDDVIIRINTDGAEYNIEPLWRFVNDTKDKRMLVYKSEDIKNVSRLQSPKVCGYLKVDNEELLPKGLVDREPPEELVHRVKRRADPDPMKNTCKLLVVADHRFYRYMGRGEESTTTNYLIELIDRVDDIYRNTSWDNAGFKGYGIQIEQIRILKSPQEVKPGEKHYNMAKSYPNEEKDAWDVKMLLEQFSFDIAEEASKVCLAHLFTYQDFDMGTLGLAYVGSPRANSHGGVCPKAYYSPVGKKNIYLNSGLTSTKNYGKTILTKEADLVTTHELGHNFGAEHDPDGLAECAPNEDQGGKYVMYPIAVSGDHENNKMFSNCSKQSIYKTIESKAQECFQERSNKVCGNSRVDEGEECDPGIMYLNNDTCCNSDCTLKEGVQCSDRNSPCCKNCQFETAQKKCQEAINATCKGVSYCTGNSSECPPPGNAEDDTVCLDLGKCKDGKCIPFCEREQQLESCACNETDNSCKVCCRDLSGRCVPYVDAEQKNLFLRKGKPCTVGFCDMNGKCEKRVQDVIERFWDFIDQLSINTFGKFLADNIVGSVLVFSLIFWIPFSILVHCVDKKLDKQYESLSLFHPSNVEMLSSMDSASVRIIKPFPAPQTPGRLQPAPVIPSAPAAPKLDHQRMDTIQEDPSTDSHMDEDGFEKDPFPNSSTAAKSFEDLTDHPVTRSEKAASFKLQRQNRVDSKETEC

Row | Compound | inhibition at 3 µM [1] [%] | IC50 [2] [nM] | IC50 [3] [nM] | IC50 [4] [nM] | inhibition [5] [%]
1 | CC#CCOc1ccc(S(=O)(=O)N2Cc3cc(N4CCOCC4)ccc3N(C(C)=O)CC2C(=O)NO)cc1 (configuration not stated) | 73 | 1260 | 33 | 130 | 
2 | CC#CCOc1ccc(S(=O)(=O)N2Cc3ccccc3N(C(=O)COC)CC2C(=O)NO)cc1 (configuration not stated) | 73 | 853 | 97 | 81 | 
3 | CC#CCOc1ccc(S(=O)(=O)N2Cc3cc(N(C)C)ccc3N(C(C)=O)CC2C(=O)NO)cc1 (configuration not stated) | 33 | 682 | 17 | 197 | 
4 | CC#CCOc1ccc(S(=O)(=O)N2Cc3ccc(CN4CCNCC4)cc3N(C(C)=O)CC2C(=O)NO)cc1 (configuration not stated) | 72 | 483 | 17 | 14 | 
5 | CC#CCOc1ccc(S(=O)(=O)N2Cc3cc(N4CCN(C)CC4)ccc3N(C(C)=O)CC2C(=O)NO)cc1 (configuration not stated) | 75 | 852 | 21 | 92 | 
6 | CC#CCOc1ccc(S(=O)(=O)N2Cc3ccc(CNC(C)=O)cc3N(C(C)=O)CC2C(=O)NO)cc1 (configuration not stated) | 46 | 578 | 12 | 31 | 
7 | CC#CCOc1ccc(S(=O)(=O)N2Cc3ccc(CN(C)C)cc3N(C(C)=O)CC2C(=O)NO)cc1 (configuration not stated) | 70 | 904 | 67 | 18 | 
8 | CC#CCOc1ccc(S(=O)(=O)N2Cc3ccccc3N(C(=O)c3cnccn3)CC2C(=O)NO)cc1 (configuration not stated) | 41 | 356 | 20 | 69 | 
9 | CC#CCOc1ccc(S(=O)(=O)N2Cc3cc(NCCc4ccccn4)ccc3N(C(C)=O)CC2C(=O)NO)cc1 (configuration not stated) | 44 |  | 47 | 49 | 30
10 | CC#CCOc1ccc(S(=O)(=O)N2Cc3cc(OCCc4ccccc4)ccc3N(C(C)=O)CC2C(=O)NO)cc1 (configuration not stated) | 83 |  | 28 | 36 | 45
11 | CC#CCOc1ccc(S(=O)(=O)N2Cc3ccccc3N(C(C)=O)CC2C(=O)NO)cc1 (configuration not stated) | 60 |  |  |  | 
12 | CC#CCOc1ccc(S(=O)(=O)N2Cc3ccc(CNC)cc3N(C(C)=O)CC2C(=O)NO)cc1 (configuration not stated) | 81 | 456 | 32 | 14 | 
13 | CC#CCOc1ccc(S(=O)(=O)N2Cc3ccc(CO)cc3N(C(C)=O)CC2C(=O)NO)cc1 (configuration not stated) | 63 | 500 | 20 | 12 | 
14 | CC#CCOc1ccc(S(=O)(=O)N2Cc3ccc(C(=O)NC)cc3N(C(C)=O)CC2C(=O)NO)cc1 (configuration not stated) | 64 | 813 | 42 | 41 | 
15 | CC#CCOc1ccc(S(=O)(=O)N2Cc3ccccc3N(C(=O)c3ccco3)CC2C(=O)NO)cc1 (configuration not stated) | 74 |  |  |  | 
16 | CC#CCOc1ccc(S(=O)(=O)N2Cc3cc(N(C)CCc4ccccn4)ccc3N(C(C)=O)CC2C(=O)NO)cc1 (configuration not stated) | 82 |  | 53 | 121 | 19
17 | CC#CCOc1ccc(S(=O)(=O)N2Cc3ccccc3N(C(=O)c3cccnc3)CC2C(=O)NO)cc1 (configuration not stated) | 33 | 238 | 19 | 89 | 
